Test system: MDA-MB-231 breast cancer cell line
Assay: Secondary sphere formation assay in MDA-MB-231
Format: cell-based
Conditions: MDA-MB-231, in combination with 500 nM progranulin, 48 hours
Protocol: C-terminal Progranulin (progranulin) (Casio, peptide sequence: […], SEQ ID NO: 5) were reconstituted in sterile PBS upon delivery, aliquoted and stored at −20° C. Working stock concentrations were achieved by dilution in culture media. […] 5% CO2 and 21% O2 before performing the primary followed by secondary sphere formation assay.
The sphere formation assay was performed as described previously (Mammary Gland Biol Neoplasia, 2012, 17(2): 111-117). Briefly, single cell suspensions were obtained following treatment with respective sortilin inhibitors SI1, SI5, SI8, SI25, SI32, SI39, SI51 and SI62 of the invention and seeded in phenol red-free DMEM/F-12 (Gibco®, Life Technologies), supplemented with 1% B27 supplement (Fisher Scientific, Invitrogen), 1% P/S and 20 ng/ml EGF (BD Biosciences) onto non-adherent polyhema-coated plates. After cultivation for five days, single cell suspensions were obtained from the primary spheres and seeded again in phenol red-free DMEM/F-12 supplemented with 1% B27 supplement, 1% P/S and 20 ng/ml EGF onto non-adherent polyhema-coated plates for 5-7 days. Subsequently, spheres greater than 50 μm in diameter were counted manually in the microscope.

Row | Compound | progranulin induced secondary sphere formation
1 | CC(C)(C)/C=C/C(NC(=O)c1cc(Cl)c[nH]1)C(=O)O (stereo not shown) [SI8, (E)-2-(4-chloro-2-pyrrolylcarbonylamino)-5,5-dimethyl-3-hexenoic acid] | reduced sphere formation

Same assay, conditions: MDA-MB-231, without progranulin, 48 hours

Row | Compound | baseline sphere formation, compound used alone
2 | CC(C)(C)/C=C/C(NC(=O)c1cc(Cl)c[nH]1)C(=O)O (stereo not shown) [SI8, (E)-2-(4-chloro-2-pyrrolylcarbonylamino)-5,5-dimethyl-3-hexenoic acid] | reduced baseline sphere formation
3 | CC(C)(C)/C=C/C(NC(=O)c1cc(Cl)cs1)C(=O)O (stereo not shown) [SI32, (E)-2-(4-chloro-2-thienylcarbonylamino)-5,5-dimethyl-3-hexenoic acid] | reduced baseline sphere formation

Target: T1, human sortilin (sSORT) (Homo sapiens, UniProt Q99523)
T1 sequence (Q99523 78-756 limits assumed): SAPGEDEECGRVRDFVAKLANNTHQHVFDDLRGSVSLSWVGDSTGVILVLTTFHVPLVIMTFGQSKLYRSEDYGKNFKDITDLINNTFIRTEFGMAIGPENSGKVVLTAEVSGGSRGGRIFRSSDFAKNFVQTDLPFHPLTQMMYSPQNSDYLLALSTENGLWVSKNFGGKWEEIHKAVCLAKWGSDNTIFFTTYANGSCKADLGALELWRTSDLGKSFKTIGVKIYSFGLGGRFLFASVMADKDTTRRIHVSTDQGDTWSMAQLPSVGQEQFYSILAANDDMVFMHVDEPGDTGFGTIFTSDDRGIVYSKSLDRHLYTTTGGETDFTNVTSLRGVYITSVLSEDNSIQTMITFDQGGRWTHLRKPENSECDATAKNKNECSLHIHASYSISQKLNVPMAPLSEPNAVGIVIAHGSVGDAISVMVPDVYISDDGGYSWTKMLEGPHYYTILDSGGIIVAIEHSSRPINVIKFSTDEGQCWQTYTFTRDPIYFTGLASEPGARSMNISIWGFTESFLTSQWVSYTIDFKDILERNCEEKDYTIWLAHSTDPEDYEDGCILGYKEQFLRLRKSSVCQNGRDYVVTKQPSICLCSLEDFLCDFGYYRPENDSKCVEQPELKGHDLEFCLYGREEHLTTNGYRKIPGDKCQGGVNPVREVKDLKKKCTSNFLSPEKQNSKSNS
Assay: Neurotensin competitive fluorescence polarization binding assay (FPA)
Conditions: mean IC50 values for sortilin inhibitors, IC50 (nM), 100 nM sSORT, 10 nM Neurotensin-Ahx-FITC, 1 h room temperature
Protocol: Fresh 0.1% bovine serum albumin (BSA) was added to the assay buffer to obtain the final concentration: 50 mM HEPES, pH 7.4; 100 mM NaCl; 2.0 mM CaCl2; 0.1% BSA; 0.1% TWEEN® 20. The sortilin inhibitors of the invention and reference compounds (see Table 1) analyzed in the screen and neurotensin (used as an assay control) were serially diluted in ten different concentrations in assay buffer. In each well of a Nunc® MaxiSorp™ 384-well plate (Sigma Aldrich), 100 nM sSORT was mixed with pre-diluted sortilin inhibitors and 10 nM Neurotensin-Ahx-FITC in assay buffer adjusted to contain 1% DMSO in a final volume of 20 μl. The plate was then briefly centrifuged prior to 1 h incubation at room temperature in the dark.

Row | Compound | IC50 [nM]
4 | CC(C)(C)/C=C/C(NC(=O)c1ccc(Oc2cccnc2)cc1)C(=O)O (stereo not shown) [SI34, (E)-5,5-dimethyl-2-[p-(3-pyridyloxy)benzoylamino]-3-hexenoic acid] | 56
5 | CC(C)(C)/C=C/C(NC(=O)c1cc(Cl)c[nH]1)C(=O)O (stereo not shown) [SI8, (E)-2-(4-chloro-2-pyrrolylcarbonylamino)-5,5-dimethyl-3-hexenoic acid] | 43
6 | CC(C)(C)/C=C/C(NC(=O)c1cnc(Oc2ccccc2)nc1)C(=O)O (stereo not shown) [SI44, (E)-5,5-dimethyl-2-(2-phenoxy-5-pyrimidinylcarbonylamino)-3-hexenoic acid] | 158
7 | CC(C)(C)/C=C/C(NC(=O)C1CN(c2ccncc2)CCN1)C(=O)O (single isomer, unassigned) [SI4 diastereomer 2, (E)-5,5-dimethyl-2-[4-(4-pyridyl)-2-piperazinylcarbonylamino]-3-hexenoic acid] | 912
8 | CC(C)(C)/C=C/C(NC(=O)c1cccc(-c2cccs2)c1)C(=O)O (stereo not shown) [SI52, (E)-5,5-dimethyl-2-[m-(2-thienyl)benzoylamino]-3-hexenoic acid] | 31
9 | CC(C)(C)/C=C/C(NC(=O)c1cccc(-n2cncn2)c1)C(=O)O (stereo not shown) [SI24, (E)-5,5-dimethyl-2-[m-(1H-1,2,4-triazol-1-yl)benzoylamino]-3-hexenoic acid] | 52
10 | CC(C)(C)/C=C/C(NC(=O)C1CN(c2ccccn2)CCN1)C(=O)O (single isomer, unassigned) [SI3 diastereomer 2, (E)-5,5-dimethyl-2-[4-(2-pyridyl)-2-piperazinylcarbonylamino]-3-hexenoic acid] | 339
11 | Cc1nc(N(C)C)ncc1C(=O)NC(CCC(C)(C)C)C(=O)O (stereo not shown) [RC1, 2-[2-(dimethylamino)-4-methyl-5-pyrimidinylcarbonylamino]-5,5-dimethylhexanoic acid, reference compound] | 123
12 | CC(C)(C)/C=C/C(NC(=O)c1ccc(COc2ccccc2)cc1)C(=O)O (stereo not shown) [SI55, (E)-5,5-dimethyl-2-[p-(phenoxymethyl)benzoylamino]-3-hexenoic acid] | 116
13 | CC(C)(C)/C=C/C(NC(=O)c1ccc(C(=O)C(F)(F)F)cc1)C(=O)O (stereo not shown) [SI2, (E)-5,5-dimethyl-2-[p-(2,2,2-trifluoroacetyl)benzoylamino]-3-hexenoic acid] | 234
14 | Cn1nc(-c2cccnc2)cc1C(=O)NC(/C=C/C(C)(C)C)C(=O)O (stereo not shown) [SI59, (E)-5,5-dimethyl-2-[1-methyl-3-(3-pyridyl)-5-pyrazolylcarbonylamino]-3-hexenoic acid] | 316
15 | Cn1cc(Cl)cc1C(=O)NC(/C=C/C(C)(C)C)C(=O)O (stereo not shown) [SI31, (E)-2-(4-chloro-1-methyl-2-pyrrolylcarbonylamino)-5,5-dimethyl-3-hexenoic acid] | 71
16 | CCn1nc(CC(C)C)cc1C(=O)NC(/C=C/C(C)(C)C)C(=O)O (stereo not shown) [SI56, (E)-2-(1-ethyl-3-isobutyl-5-pyrazolylcarbonylamino)-5,5-dimethyl-3-hexenoic acid] | 95
17 | CC(C)(C)/C=C/C(NC(=O)C1CN(c2ccncc2)CCN1)C(=O)O (single isomer, unassigned) [SI4 diastereomer 1, (E)-5,5-dimethyl-2-[4-(4-pyridyl)-2-piperazinylcarbonylamino]-3-hexenoic acid] | 229
18 | CC(C)(C)/C=C/C(NC(=O)c1ccc(Oc2ccc(Cl)cc2)cc1)C(=O)O (stereo not shown) [SI53, (E)-2-[p-(p-chlorophenoxy)benzoylamino]-5,5-dimethyl-3-hexenoic acid] | 148
19 | CC(C)(C)/C=C/C(NC(=O)c1cc(Cl)cs1)C(=O)O (stereo not shown) [SI32, (E)-2-(4-chloro-2-thienylcarbonylamino)-5,5-dimethyl-3-hexenoic acid] | 52
20 | CC(C)(C)/C=C/C(NC(=O)C1CN(c2ccccn2)CCN1)C(=O)O (single isomer, unassigned) [SI3 diastereomer 1, (E)-5,5-dimethyl-2-[4-(2-pyridyl)-2-piperazinylcarbonylamino]-3-hexenoic acid] | 135

Row | Compound | IC50 [nM]
21 | CN(C)c1nccc(C(=O)NC(/C=C/C(C)(C)C)C(=O)O)n1 (stereo not shown) [SI19, (E)-2-[2-(dimethylamino)-4-pyrimidinylcarbonylamino]-5,5-dimethyl-3-hexenoic acid] | 851
22 | CN(C)c1ncc(C(=O)NC(/C=C/C(C)(C)C)C(=O)O)cn1 (stereo not shown) [SI17, (E)-2-[2-(dimethylamino)-5-pyrimidinylcarbonylamino]-5,5-dimethyl-3-hexenoic acid] | 149
23 | Cc1nc(N(C)C)ncc1C(=O)NC(/C=C/C(C)(C)C)C(=O)O (single isomer, unassigned) [SI1 (active enantiomer), (E)-2-[2-(dimethylamino)-4-methyl-5-pyrimidinylcarbonylamino]-5,5-dimethyl-3-hexenoic acid] | 9
24 | Cn1nc(Cl)cc1C(=O)NC(/C=C/C(C)(C)C)C(=O)O (stereo not shown) [SI57, (E)-2-(3-chloro-1-methyl-5-pyrazolylcarbonylamino)-5,5-dimethyl-3-hexenoic acid] | 45
25 | Cn1nc(C(=O)NC(/C=C/C(C)(C)C)C(=O)O)cc1-c1ccc(Cl)c(Cl)c1 (stereo not shown) [SI61, (E)-2-[5-(3,4-dichlorophenyl)-1-methyl-3-pyrazolylcarbonylamino]-5,5-dimethyl-3-hexenoic acid] | 117
26 | CC(C)(C)/C=C/C(NC(=O)c1cc(Br)c[nH]1)C(=O)O (stereo not shown) [SI28, (E)-2-(4-bromo-2-pyrrolylcarbonylamino)-5,5-dimethyl-3-hexenoic acid] | 55
27 | CC(C)(C)/C=C/C(NC(=O)c1ccc(-n2cnnc2)cc1)C(=O)O (stereo not shown) [SI23, (E)-5,5-dimethyl-2-[p-(4H-1,2,4-triazol-4-yl)benzoylamino]-3-hexenoic acid] | 158
28 | CC(C)Cc1cc(C(=O)NC(/C=C/C(C)(C)C)C(=O)O)n(C)n1 (stereo not shown) [SI9, (E)-2-(3-isobutyl-1-methyl-5-pyrazolylcarbonylamino)-5,5-dimethyl-3-hexenoic acid] | 102
29 | Cc1cc2[nH]c(C(=O)NC(/C=C/C(C)(C)C)C(=O)O)cc2cn1 (stereo not shown) [SI7, (E)-5,5-dimethyl-2-(6-methyl-1H-1,5-diazainden-2-ylcarbonylamino)-3-hexenoic acid] | 89
30 | CC(C)(C)/C=C/C(NC(=O)c1ccc(Cl)[nH]1)C(=O)O (stereo not shown) [SI29, (E)-2-(5-chloro-2-pyrrolylcarbonylamino)-5,5-dimethyl-3-hexenoic acid] | 80
31 | CC(C)(C)/C=C/C(NC(=O)c1ccc(Oc2ccccc2)nc1)C(=O)O (single isomer, unassigned) [SI (active enantiomer), (E)-5,5-dimethyl-2-(6-phenoxynicotinoylamino)-3-hexenoic acid] | 5
32 | Cc1cc(C(=O)NC(/C=C/C(C)(C)C)C(=O)O)nc(N(C)C)n1 (stereo not shown) [SI20, (E)-2-[2-(dimethylamino)-6-methyl-4-pyrimidinylcarbonylamino]-5,5-dimethyl-3-hexenoic acid] | 1000
33 | CC(C)(C)/C=C/C(NC(=O)c1cccc(-n2cnnc2)n1)C(=O)O (stereo not shown) [SI50, (E)-5,5-dimethyl-2-[6-(4H-1,2,4-triazol-4-yl)-2-pyridylcarbonylamino]-3-hexenoic acid] | 668
34 | CC(C)(C)/C=C/C(NC(=O)c1cccc(-n2cnnc2)c1)C(=O)O (stereo not shown) [SI6, (E)-5,5-dimethyl-2-[m-(4H-1,2,4-triazol-4-yl)benzoylamino]-3-hexenoic acid] | 62
35 | CC(C)(C)CC[C@H](NC(=O)c1ccc(Oc2ccccc2)nc1)C(=O)O [RC2 (active enantiomer), (S)-5,5-dimethyl-2-(6-phenoxynicotinoylamino)hexanoic acid, reference compound] | 28
36 | CC(C)(C)/C=C/C(NC(=O)c1ccc(Oc2cccc(Cl)c2)cc1)C(=O)O (stereo not shown) [SI54, (E)-2-[p-(m-chlorophenoxy)benzoylamino]-5,5-dimethyl-3-hexenoic acid] | 158

Same assay, conditions: read-out: mean IC50 values for sortilin inhibitors, IC50; 100 nM sSORT, 10 nM Neurotensin-Ahx-FITC, 1 h room temperature

Row | Compound | IC50 [nM]
37 | (E)-2-(2-isopropyl-4-methyl-5-pyrimidinylcarbonylamino)-5,5-dimethyl-3-hexenoic acid [SI49] | 68

From patent US20250002460A1, “SORTILIN INHIBITORS” (SORTINA PHARMA AB, priority 2021, published 2025)
